Key:
[1] = molecular target: NK1 (Homo sapiens, UniProt P25103); experiment: Signal transduction (ST), intracellular Ca++ (FLIPR), NK1 antagonism; format: cell-based; conditions: for IC50: read-out: pIC50 NK1 (converted)
Experimental: (§1) This test evaluates in vitro functional NK1 antagonistic activity. For the measurements of intracellular Ca^++ concentrations the cells were grown on 96-well (black wall/transparent bottom) plates from Costar for 2 days until they reached confluence. The cells were loaded with 2 μM Fluo3 in DMEM containing 0.1% BSA and 2.5 mM probenecid for 1 h at 37° C. […] The cells were preincubated with a concentration range of antagonists for 20 min at RT and Ca^++-signals after addition of the agonists were measured in a Fluorescence Image Plate Reader (FLIPR from Molecular Devices, Crawley, England). The peak of the Ca^++-transient was considered as the relevant signal and the mean values of corresponding wells were analysed as described below.
(§2) The sigmoidal dose response curves were analysed by computerised curve-fitting, using the GraphPad Program. […] For antagonist responses the IC50-value was calculated using non-linear regression.

[2] = molecular target: T1, NK3 (Homo sapiens, UniProt P29371); experiment: Signal transduction (ST), intracellular Ca++ (FLIPR), NK3; format: cell-based; conditions: read-out: pIC50 NK3 (converted)
T1 sequence (P29371 1-465): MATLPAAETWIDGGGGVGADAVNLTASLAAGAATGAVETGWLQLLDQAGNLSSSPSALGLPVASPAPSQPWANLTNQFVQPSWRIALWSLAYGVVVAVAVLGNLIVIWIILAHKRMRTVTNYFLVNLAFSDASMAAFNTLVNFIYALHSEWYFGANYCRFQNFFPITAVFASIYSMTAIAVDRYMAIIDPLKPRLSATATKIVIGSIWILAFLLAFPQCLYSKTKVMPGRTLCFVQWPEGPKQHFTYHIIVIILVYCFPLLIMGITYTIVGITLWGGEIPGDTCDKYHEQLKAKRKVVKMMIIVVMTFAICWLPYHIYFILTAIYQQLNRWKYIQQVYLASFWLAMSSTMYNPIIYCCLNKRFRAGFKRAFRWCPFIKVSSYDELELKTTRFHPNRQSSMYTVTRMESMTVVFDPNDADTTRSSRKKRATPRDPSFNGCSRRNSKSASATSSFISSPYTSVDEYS
Experimental: [The source words this procedure for another target and reports this target under the same test.] as §1, §2

Chain of NK1 (P25103 whole entry): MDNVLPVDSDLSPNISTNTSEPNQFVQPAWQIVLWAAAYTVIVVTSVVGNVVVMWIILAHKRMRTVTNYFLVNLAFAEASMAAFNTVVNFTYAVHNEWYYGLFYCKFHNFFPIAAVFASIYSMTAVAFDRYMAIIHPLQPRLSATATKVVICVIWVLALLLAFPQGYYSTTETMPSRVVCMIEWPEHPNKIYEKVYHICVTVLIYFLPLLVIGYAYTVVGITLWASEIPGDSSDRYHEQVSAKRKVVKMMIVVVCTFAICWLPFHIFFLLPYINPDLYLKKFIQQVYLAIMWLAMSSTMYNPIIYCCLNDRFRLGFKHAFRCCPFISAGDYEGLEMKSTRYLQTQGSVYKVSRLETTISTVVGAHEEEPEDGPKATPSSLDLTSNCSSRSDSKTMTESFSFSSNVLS

Structure (SMILES) | IC50 [1] [nM] | IC50 [2] [nM] | pIC50 NK1 [1]
O=C(c1cc(C(F)(F)F)cc(C(F)(F)F)c1)N1CCC(N2CCN(C3CCCNC3)CC2)CC1Cc1ccccc1 (single isomer, unassigned) [Compound 109] | – | – | 7.3
O=C(c1ccoc1)N1CCCC(N2CCCN(C3CCN(C(=O)c4cc(C(F)(F)F)cc(C(F)(F)F)c4)C(Cc4ccccc4)C3)CC2)C1 (single isomer, unassigned) [Compound 112] | 158 | – | –
O=C(c1ccoc1)N1CCCC(N2CCCN(C3CCN(C(=O)c4cc(C(F)(F)F)cc(C(F)(F)F)c4)C(Cc4ccccc4)C3)CC2)C1 (single isomer, unassigned) [Compound 116] | 50.1 | 3980 | –
O=C(c1cc(C(F)(F)F)cc(C(F)(F)F)c1)N1CCC(N2CCN(C3CCCN(Cc4ccccc4)C3)CC2)CC1Cc1ccccc1 (centres unmarked) [Compound 1] | 50.1 | – | –
Cc1cc(C)cc(C(=O)N2CCCC(N3CCN(C4CCN(C(=O)c5cc(C(F)(F)F)cc(C(F)(F)F)c5)C(Cc5ccccc5)C4)CC3)C2)c1 (centres unmarked) [Compound 3] | 79.4 | 2000 | –
COc1ccc(S(=O)(=O)N2CCCC(N3CCN([C@H]4CCN(C(=O)c5cc(C(F)(F)F)cc(C(F)(F)F)c5)[C@H](Cc5ccccc5)C4)CC3)C2)cc1F (some centres unmarked) [Compound 7] | 50.1 | 1000 | –
O=C(c1ccccc1)N1CCCC(N2CCN([C@H]3CCN(C(=O)c4cc(C(F)(F)F)cc(C(F)(F)F)c4)[C@H](Cc4ccccc4)C3)CC2)C1 (some centres unmarked) [Compound 8] | 20 | 251 | –
Cc1cc(C)cc(C(=O)N2CCCC(N3CCN([C@@H]4CCN(C(=O)c5cc(C(F)(F)F)cc(C(F)(F)F)c5)[C@H](Cc5ccccc5)C4)CC3)C2)c1.O=C(O)/C=C/C(=O)O.O=C(O)/C=C/C(=O)O (some centres unmarked) [Compound 13] | – | – | 6.3
O=C(c1ccoc1)N1CCCC(N2CCN(C3CCN(C(=O)c4cc(C(F)(F)F)cc(C(F)(F)F)c4)C(Cc4ccccc4)C3)CC2)C1 (centres unmarked) [Compound 17] | 31.6 | 2510 | –
O=C(c1ccco1)N1CCCC(N2CCN([C@H]3CCN(C(=O)c4cc(C(F)(F)F)cc(C(F)(F)F)c4)[C@H](Cc4ccccc4)C3)CC2)C1 (some centres unmarked) [Compound 18] | 20 | 2510 | –
O=C(C(=O)N1CCCC(N2CCN(C3CCN(C(=O)c4cc(C(F)(F)F)cc(C(F)(F)F)c4)C(Cc4ccccc4)C3)CC2)C1)c1ccco1 (centres unmarked) [Compound 24] | 25.1 | 3980 | –
COc1ccc(C)cc1S(=O)(=O)N1CCCC(N2CCN([C@H]3CCN(C(=O)c4cc(C(F)(F)F)cc(C(F)(F)F)c4)[C@H](Cc4ccccc4)C3)CC2)C1 (some centres unmarked) [Compound 31] | 25.1 | 3160 | –
CC(C)S(=O)(=O)N1CCCC(N2CCN([C@H]3CCN(C(=O)c4cc(C(F)(F)F)cc(C(F)(F)F)c4)[C@H](Cc4ccccc4)C3)CC2)C1 (some centres unmarked) [Compound 35] | 10 | 2000 | –
Cc1cc(C(=O)N2CCCC(N3CCN([C@H]4CCN(C(=O)c5cc(C(F)(F)F)cc(C(F)(F)F)c5)[C@H](Cc5ccccc5)C4)CC3)C2)n(C)n1 (some centres unmarked) [Compound 42] | 7.94 | 2510 | –
Cc1c(S(=O)(=O)N2CCCC(N3CCN([C@H]4CCN(C(=O)c5cc(C(F)(F)F)cc(C(F)(F)F)c5)[C@H](Cc5ccccc5)C4)CC3)C2)cnn1-c1ccccc1 (some centres unmarked) [Compound 44] | 63.1 | 5010 | –
O=C(c1cc(C(F)(F)F)cc(C(F)(F)F)c1)N1CC[C@H](N2CCN(C3CCCN(S(=O)(=O)c4ccc(O)c(F)c4)C3)CC2)C[C@H]1Cc1ccccc1 (some centres unmarked) [Compound 107] | 15.8 | 1260 | –
O=C(c1cc(C(F)(F)F)cc(C(F)(F)F)c1)N1CC[C@@H](N2CCCN(C3CCCN(Cc4ccccc4)C3)CC2)C[C@H]1Cc1ccccc1 (some centres unmarked) [Compound 110] | 200 | – | –
O=C(c1cc(C(F)(F)F)cc(C(F)(F)F)c1)N1CC[C@H](N2CCCN(C3CCCN(Cc4ccccc4)C3)CC2)C[C@H]1Cc1ccccc1 (some centres unmarked) [Compound 111] | 251 | 7940 | –
O=C(c1cc(C(F)(F)F)cc(C(F)(F)F)c1)N1CC[C@H](N2CCCN(C3CCCN(S(=O)(=O)c4cccs4)C3)CC2)C[C@H]1Cc1ccccc1 (some centres unmarked) [Compound 122] | 100 | – | –

Continued, in another order:

IC50 [1] [nM] | IC50 [2] [nM] | Structure (SMILES) | pIC50 NK1 [1]
39.8 | 6310 | O=C(C1CCOC1)N1CCCC(N2CCCN(C3CCN(C(=O)c4cc(C(F)(F)F)cc(C(F)(F)F)c4)C(Cc4ccccc4)C3)CC2)C1 (single isomer, unassigned) [Compound 115] | –
126 | 7940 | O=C(C1CCOC1)N1CCCC(N2CCCN(C3CCN(C(=O)c4cc(C(F)(F)F)cc(C(F)(F)F)c4)C(Cc4ccccc4)C3)CC2)C1 (single isomer, unassigned) [Compound 121] | –
20 | – | O=C(c1cc(C(F)(F)F)cc(C(F)(F)F)c1)N1CCC(N2CCN(C3CCCNC3)CC2)CC1Cc1ccccc1 (centres unmarked) [Compound 2] | –
25.1 | 3160 | O=C(c1cc(F)ccc1F)N1CCCC(N2CCN([C@H]3CCN(C(=O)c4cc(C(F)(F)F)cc(C(F)(F)F)c4)[C@H](Cc4ccccc4)C3)CC2)C1 (some centres unmarked) [Compound 12] | –
12.6 | 2000 | CC1(C(=O)N2CCCC(N3CCN([C@H]4CCN(C(=O)c5cc(C(F)(F)F)cc(C(F)(F)F)c5)[C@H](Cc5ccccc5)C4)CC3)C2)CC1 (some centres unmarked) [Compound 14] | –
12.6 | 1000 | O=C(C1CCOC1)N1CCCC(N2CCN([C@H]3CCN(C(=O)c4cc(C(F)(F)F)cc(C(F)(F)F)c4)[C@H](Cc4ccccc4)C3)CC2)C1 (some centres unmarked) [Compound 16] | –
25.1 | 2000 | Cc1occc1C(=O)N1CCCC(N2CCN([C@H]3CCN(C(=O)c4cc(C(F)(F)F)cc(C(F)(F)F)c4)[C@H](Cc4ccccc4)C3)CC2)C1 (some centres unmarked) [Compound 19] | –
20 | 1260 | O=C(c1cc(C(F)(F)F)cc(C(F)(F)F)c1)N1CC[C@H](N2CCN(C3CCCN(C(=O)n4ccnc4)C3)CC2)C[C@H]1Cc1ccccc1 (some centres unmarked) [Compound 21] | –
20 | 1260 | O=C(c1cc(C(F)(F)F)cc(C(F)(F)F)c1)N1CC[C@H](N2CCN(C3CCCN(S(=O)(=O)c4ccccc4Cl)C3)CC2)C[C@H]1Cc1ccccc1 (some centres unmarked) [Compound 27] | –
39.8 | 1000 | Cc1csc(C)c1S(=O)(=O)N1CCCC(N2CCN([C@H]3CCN(C(=O)c4cc(C(F)(F)F)cc(C(F)(F)F)c4)[C@H](Cc4ccccc4)C3)CC2)C1 (some centres unmarked) [Compound 33] | –
50.1 | 2000 | O=C(c1cc(C(F)(F)F)cc(C(F)(F)F)c1)N1CC[C@H](N2CCN(C3CCCN(S(=O)(=O)c4ccc(-c5ccccn5)s4)C3)CC2)C[C@H]1Cc1ccccc1 (some centres unmarked) [Compound 34] | –
5.01 | 6310 | CC(=O)N1CCC[C@H]1C(=O)N1CCCC(N2CCN([C@H]3CCN(C(=O)c4cc(C(F)(F)F)cc(C(F)(F)F)c4)[C@H](Cc4ccccc4)C3)CC2)C1 (some centres unmarked) [Compound 60] | –
126 | 5010 | O=C(c1ccc(CCOCc2ccccc2)s1)N1CCCC(N2CCN(C3CCN(C(=O)c4cc(C(F)(F)F)cc(C(F)(F)F)c4)C(Cc4ccccc4)C3)CC2)C1 (centres unmarked) [Compound 93] | –
79.4 | – | O=C(c1cc(C(F)(F)F)cc(C(F)(F)F)c1)N1CCC(N2CCN(C3CCCNC3)CC2)CC1Cc1ccccc1 (centres unmarked) [Compound 108] | –
126 | – | O=C(c1ccccc1Cl)N1CCCC(N2CCCN([C@@H]3CCN(C(=O)c4cc(C(F)(F)F)cc(C(F)(F)F)c4)[C@H](Cc4ccccc4)C3)CC2)C1 (some centres unmarked) [Compound 119] | –

Source: patent publication US7572786B2, “Substituted 1-piperidin-3-yl-4-piperidin-4-yl-piperazine derivatives and their use as neurokinin antagonists” (Janssen Pharmaceutica, N.V., priority 2002, dated 2009)
